Results published in ChEMBL document CHEMBL3044730, “Synthesis, antimycobacterial, antiviral, antimicrobial activities, and QSAR studies of nicotinic acid benzylidene hydrazide derivatives” (Med Chem Res, 2012).
In brackets after ≈: the same amount, converted by molar mass.

Tests used:
Human respirovirus 3 = test: Antiviral activity against Human parainfluenza virus 3 infected Vero cells assessed as inhibition of virus-induced cytopathicity by microscopy; format: functional, organism-based; details: Human respirovirus 3, Vero
[1] = Cytotoxicity against Chlorocebus aethiops (African green monkey) Vero cells assessed as alteration in cell morphology by microscopy; format: cell-based; details: chlorocebus sabaeus
[2] = tested on: Mammalian orthoreovirus 1; test: Antiviral activity against Mammalian orthoreovirus 1 infected Vero cells assessed as inhibition of virus-induced cytopathicity by microscopy; format: functional, organism-based; details: Mammalian orthoreovirus 1, Vero
[3] = Cytotoxicity against Homo sapiens (human) HEL cells assessed as alteration in cell morphology by microscopy; format: cell-based
Bacillus subtilis = test: Antimicrobial activity against Bacillus subtilis after 24 hr by serial dilution method; format: functional; set-up: unit not given here
[4] = tested on: Human immunodeficiency virus 1; test: Antiviral activity against Human immunodeficiency virus 1 IIIB infected MT4 cells assessed as inhibition of virus-induced cytopathic effect after 4 days by MTT assay; format: functional, organism-based; details: MT4, 96 h
Candida albicans [5] = test: Antimicrobial activity against Candida albicans after 7 days by serial dilution method; format: functional; set-up: unit not given here
[6] = tested on: Human herpesvirus 5 strain AD169; test: Antiviral activity against Human herpesvirus 5 strain AD169 Davis infected human HEL cells assessed as inhibition of virus-induced cytopathicity by microscopy; format: functional, organism-based; details: Human betaherpesvirus 5, Davis
[7] = tested on: Human immunodeficiency virus 2; test: Antiviral activity against Human immunodeficiency virus type 2 (ISOLATE ROD) infected MT4 cells assessed as inhibition of virus-induced cytopathic effect after 4 days by MTT assay; format: functional, organism-based; details: Human immunodeficiency virus 2, ISOLATE ROD, MT4, 96 h
Human alphaherpesvirus 2 = test: Antiviral activity against Human herpesvirus 2 strain G infected human HEL cells assessed as inhibition of virus-induced cytopathicity by microscopy; format: functional, organism-based; details: Human alphaherpesvirus 2, strain G
[8] = Cytotoxicity against Homo sapiens (human) MT4 cells after 4 days by MTT assay; format: cell-based
Coxsackievirus B4 [9] = test: Antiviral activity against Human coxsackievirus B4 infected human HeLa cells assessed as inhibition of virus-induced cytopathicity by microscopy; format: functional, organism-based; details: Enterovirus B
Escherichia coli = test: Antimicrobial activity against Escherichia coli after 24 hr by serial dilution method; format: functional; set-up: unit not given here
Staphylococcus aureus = test: Antimicrobial activity against Staphylococcus aureus after 24 hr by serial dilution method; format: functional; set-up: unit not given here
Coxsackievirus B4 [10] = test: Antiviral activity against Human coxsackievirus B4 infected Vero cells assessed as inhibition of virus-induced cytopathicity; format: functional, organism-based; details: Enterovirus B
Punta Toro virus = test: Antiviral activity against Punta Toro virus infected Vero cells assessed as inhibition of virus-induced cytopathicity; format: functional, organism-based
[11] = tested on: Respiratory syncytial virus; test: Antiviral activity against Respiratory syncytial virus infected human HeLa cells assessed as inhibition of virus-induced cytopathicity by microscopy; format: functional, organism-based
[12] = tested on: Vesicular stomatitis virus; test: Antiviral activity against Vesicular stomatitis virus infected human HeLa cells assessed as inhibition of virus-induced cytopathicity by microscopy; format: functional, organism-based
Candida albicans [13] = test: Antimicrobial activity against Candida albicans after 2 days by serial dilution method; format: functional; set-up: unit not given here
Human alphaherpesvirus 1 [14] = test: Antiviral activity against TK(-) aciclovir-resistant Human herpesvirus 1 strain KOS infected in human HEL cells assessed as inhibition of virus-induced cytopathicity; format: functional, organism-based; details: Human alphaherpesvirus 1, KOS
[15] = tested on: Mycobacterium tuberculosis; test: Antimicrobial activity against Mycobacterium tuberculosis by agar dilution method; format: functional
[16] = tested on: Human herpesvirus 3 strain Oka vaccine; test: Antiviral activity against Human herpesvirus 3 strain Oka vaccine OKA 07-1 (Varicella zoster virus) infected in human HEL cells assessed as inhibition of virus-induced cytopathicity; format: functional, organism-based; details: Human alphaherpesvirus 3, OKA 07-1, HEL
Vaccinia virus = test: Antiviral activity against Vaccinia virus infected human HEL cells assessed as inhibition of virus-induced cytopathicity by microscopy; format: functional, organism-based; details: Orthopoxvirus vaccinia
Human alphaherpesvirus 1 [17] = test: Antiviral activity against Human herpesvirus 1 strain KOS infected in human HEL cells assessed as inhibition of virus-induced cytopathicity by microscopy by microscopy; format: functional, organism-based; details: Human alphaherpesvirus 1, KOS
Sindbis virus = test: Antiviral activity against Sindbis virus infected Vero cells assessed as inhibition of virus-induced cytopathicity; format: functional, organism-based
[18] = Cytotoxicity against Homo sapiens (human) HeLa cells assessed as alteration in cell morphology by microscopy; format: cell-based

Compound	EC50 (Human respirovirus 3) [µg/mL]	MCC [1] [µg/mL]	EC50 [2] [µg/mL]	CC50 [3] [µg/mL]	MCC [3] [µg/mL]	-logMIC (Bacillus subtilis)	EC50 [4] [µg/mL]	-logMIC (Candida albicans [5])	EC50 [6] [µg/mL]	EC50 [7] [µg/mL]	EC50 (Human alphaherpesvirus 2) [µg/mL]	CC50 at 96 h [8] [µg/mL]	EC50 (Coxsackievirus B4 [9]) [µg/mL]	-logMIC (Escherichia coli)	-logMIC (Staphylococcus aureus)	EC50 (Coxsackievirus B4 [10]) [µg/mL]	EC50 (Punta Toro virus) [µg/mL]	EC50 [11] [µg/mL]	-logMIC (Candida albicans [13])	MIC [15] [µg/mL]	further results
CCOc1cc(/C=N/NC(=O)c2cccnc2)ccc1O	> 100	> 100	> 100	63 (≈ 221 µM)	100	1.36	> 117	1.96	> 20	> 117	> 20	≥ 117	> 100	1.06	1.36	> 100	> 100	> 100	1.36	> 25	EC50 [12]: > 100 µg/mL; EC50 (Human alphaherpesvirus 1 [14]): > 20 µg/mL; EC50 [16]: > 70 µg/mL; EC50 (Vaccinia virus): > 20 µg/mL; EC50 (Human alphaherpesvirus 1 [17]): > 20 µg/mL; EC50 (Sindbis virus): > 100 µg/mL; MCC [18]: > 100 µg/mL
O=C(N/N=C/c1cccc(Br)c1)c1cccnc1	> 100	≥ 100	> 100	55 (≈ 181 µM)	> 100	1.39	> 66	1.99	> 100	> 66	> 100	66 (≈ 217 µM)	> 100	1.39	1.09	> 100	> 100	> 100	1.38	> 25	EC50 [12]: > 100 µg/mL; EC50 (Human alphaherpesvirus 1 [14]): > 100 µg/mL; EC50 [16]: > 100 µg/mL; EC50 (Vaccinia virus): > 100 µg/mL; EC50 (Human alphaherpesvirus 1 [17]): > 100 µg/mL; EC50 (Sindbis virus): > 100 µg/mL; MCC [18]: ≥ 100 µg/mL
O=C(N/N=C/c1ccc([N+](=O)[O-])cc1)c1cccnc1	> 0.8	≥ 0.8	> 0.8	< 0.16	≥ 0.8	1.33	> 0.1	1.33	> 0.16	> 0.1	> 0.8	0.1 (≈ 0.37 µM)	> 0.16	1.94	1.03	> 0.8	> 0.8	> 0.16	1.33	> 25	EC50 [12]: > 0.16 µg/mL; EC50 (Human alphaherpesvirus 1 [14]): > 0.8 µg/mL; EC50 [16]: > 0.16 µg/mL; EC50 (Vaccinia virus): > 0.8 µg/mL; EC50 (Human alphaherpesvirus 1 [17]): > 0.8 µg/mL; EC50 (Sindbis virus): > 0.8 µg/mL; MCC [18]: 0.8 µg/mL
O=C(N/N=C/c1ccccc1O)c1cccnc1 [N'-(2-HYDROXYBENZYLIDENE)NICOTINOHYDRAZIDE]	> 0.8	4	> 0.8	0.42 (≈ 1.74 µM)	≥ 4	1.59	> 0.61	1.29	> 0.8	> 0.61	> 4	0.61 (≈ 2.53 µM)	> 0.8	1.29	1.29	> 0.8	> 0.8	> 0.8	1.28	> 25	EC50 [12]: > 0.8 µg/mL; EC50 (Human alphaherpesvirus 1 [14]): > 4 µg/mL; EC50 [16]: > 2.2 µg/mL; EC50 (Vaccinia virus): > 4 µg/mL; EC50 (Human alphaherpesvirus 1 [17]): > 4 µg/mL; EC50 (Sindbis virus): > 0.8 µg/mL; MCC [18]: 4 µg/mL
Cc1ccnc2c1NC(=O)c1cccnc1N2C1CC1 [NEVIRAPINE]	–	–	–	–	–	–	0.05 (≈ 0.188 µM)	–	–	4 (≈ 15 µM)	–	> 4	–	–	–	–	–	–	–	–	–
O=C(N/N=C/c1cccc([N+](=O)[O-])c1)c1cccnc1	> 100	≥ 100	> 100	13 (≈ 48.1 µM)	> 100	1.64	> 54	1.64	> 20	> 54	> 100	54 (≈ 200 µM)	> 4	1.94	1.33	> 100	> 100	> 4	1.33	> 25	EC50 [12]: > 4 µg/mL; EC50 (Human alphaherpesvirus 1 [14]): > 100 µg/mL; EC50 [16]: > 100 µg/mL; EC50 (Vaccinia virus): > 100 µg/mL; EC50 (Human alphaherpesvirus 1 [17]): > 100 µg/mL; EC50 (Sindbis virus): > 100 µg/mL; MCC [18]: 20 µg/mL
O=C(N/N=C/c1ccccc1Br)c1cccnc1	> 100	> 100	> 100	2.6 (≈ 8.55 µM)	100	1.39	> 0.22	1.69	> 100	> 0.22	> 20	≥ 0.22	> 100	1.39	1.09	> 100	> 100	> 100	1.39	> 25	EC50 [12]: > 100 µg/mL; EC50 (Human alphaherpesvirus 1 [14]): > 20 µg/mL; EC50 [16]: > 51 µg/mL; EC50 (Vaccinia virus): > 20 µg/mL; EC50 (Human alphaherpesvirus 1 [17]): > 20 µg/mL; EC50 (Sindbis virus): > 100 µg/mL; MCC [18]: > 100 µg/mL
O=C(N/N=C/c1ccc(Br)cc1)c1cccnc1	> 100	> 100	> 100	48 (≈ 158 µM)	> 100	1.39	> 61	1.39	> 100	> 61	> 100	61 (≈ 201 µM)	> 100	1.39	1.09	> 100	> 100	> 100	1.39	25 (≈ 82.2 µM)	EC50 [12]: > 100 µg/mL; EC50 (Human alphaherpesvirus 1 [14]): > 100 µg/mL; EC50 [16]: > 100 µg/mL; EC50 (Vaccinia virus): > 100 µg/mL; EC50 (Human alphaherpesvirus 1 [17]): > 100 µg/mL; EC50 (Sindbis virus): > 100 µg/mL; MCC [18]: > 100 µg/mL
Cc1cn([C@H]2C[C@H](N=[N+]=[N-])[C@@H](CO)O2)c(=O)[nH]c1=O [ZIDOVUDINE]	–	–	–	–	–	–	–	–	–	0.0009 (≈ 0.00337 µM)	–	> 2.5	–	–	–	–	–	–	–	–	–
CC[C@@H](CO)NCCN[C@@H](CC)CO [ETHAMBUTOL]	–	–	–	–	–	–	–	–	–	–	–	–	–	–	–	–	–	–	–	1.56 (≈ 7.64 µM)	–
O=C(O)c1cn(C2CC2)c2cc(N3CCNCC3)c(F)cc2c1=O [CIPROFLOXACIN]	–	–	–	–	–	–	–	–	–	–	–	–	–	–	–	–	–	–	–	3.13 (≈ 9.45 µM)	–
O=C(N/N=C/c1ccccc1[N+](=O)[O-])c1cccnc1	> 100	> 100	> 100	46 (≈ 170 µM)	> 100	1.94	> 68	1.94	> 100	> 68	> 100	68 (≈ 252 µM)	> 100	1.33	1.33	> 100	> 100	> 100	1.33	> 25	EC50 [12]: > 100 µg/mL; EC50 (Human alphaherpesvirus 1 [14]): > 100 µg/mL; EC50 [16]: > 100 µg/mL; EC50 (Vaccinia virus): > 100 µg/mL; EC50 (Human alphaherpesvirus 1 [17]): > 100 µg/mL; EC50 (Sindbis virus): > 100 µg/mL; MCC [18]: > 100 µg/mL
O=C(N/N=C/c1ccc(O)cc1)c1cccnc1	> 100	> 100	> 100	91 (≈ 377 µM)	> 100	1.29	> 104	1.59	> 100	> 104	> 100	104 (≈ 431 µM)	> 100	1.29	1.29	> 100	> 100	> 100	1.28	> 25	EC50 [12]: > 100 µg/mL; EC50 (Human alphaherpesvirus 1 [14]): > 100 µg/mL; EC50 [16]: 54 µg/mL (≈ 224 µM); EC50 (Vaccinia virus): > 100 µg/mL; EC50 (Human alphaherpesvirus 1 [17]): > 100 µg/mL; EC50 (Sindbis virus): > 100 µg/mL; MCC [18]: > 100 µg/mL
CCn1cc(C(=O)O)c(=O)c2cc(F)c(N3CCNCC3)cc21 [NORFLOXACIN]	–	–	–	–	–	2.61	–	–	–	–	–	–	–	2.61	2.61	–	–	–	–	–	–
NNC(=O)c1cccnc1 [NICOTINIC ACID HYDRAZIDE]	–	–	–	–	–	1.04	–	1.04	–	–	–	–	–	0.74	0.74	–	–	–	1.04	–	–
OC(Cn1cncn1)(Cn1cncn1)c1ccc(F)cc1F [FLUCONAZOLE]	–	–	–	–	–	–	–	2.64	–	–	–	–	–	–	–	–	–	–	2.64	–	–
NNC(=O)c1ccncc1 [ISONIAZID]	–	–	–	–	–	–	–	–	–	–	–	–	–	–	–	–	–	–	–	0.1 (≈ 0.729 µM)	–
